Test results: ChEMBL document CHEMBL5331143, “Stereochemistry-Driven Interactions of α,γ-Peptide Ligands with the Neuropeptide Y Y4-Receptor” (J Med Chem, 2023)
pEC50, pKi: −log10 of the molar value. Starred links: 1 amine or outer side, 2 acyl side, 3 side chain; linkers in the order of their positions; H or OH if unused. Non-standard residues stand in square brackets, D forms with d. Residues, ends and D or L forms follow the SMILES beside them. X1 = O=C([C@@H]1C[C@@H](c2ccccc2)[C@@H]1CN[*:1])[*:2]; X2 = O=C([C@H]1C[C@H](c2ccccc2)[C@H]1CN[*:1])[*:2]

Columns and labels:
[1] = molecular target: T1, Neuropeptide Y receptor type 4 (Homo sapiens, UniProt P50391); experiment: Agonist potency at human Y4 receptor expressed in HEK293T-NlucN-mGSi/Y4R-NlucC cells by miniGsi protein recruitment assay; format: cell-based; conditions: for pEC50: read-out: EC50; for EC50: read-out: pEC50 (converted)
T1 sequence (P50391 whole entry): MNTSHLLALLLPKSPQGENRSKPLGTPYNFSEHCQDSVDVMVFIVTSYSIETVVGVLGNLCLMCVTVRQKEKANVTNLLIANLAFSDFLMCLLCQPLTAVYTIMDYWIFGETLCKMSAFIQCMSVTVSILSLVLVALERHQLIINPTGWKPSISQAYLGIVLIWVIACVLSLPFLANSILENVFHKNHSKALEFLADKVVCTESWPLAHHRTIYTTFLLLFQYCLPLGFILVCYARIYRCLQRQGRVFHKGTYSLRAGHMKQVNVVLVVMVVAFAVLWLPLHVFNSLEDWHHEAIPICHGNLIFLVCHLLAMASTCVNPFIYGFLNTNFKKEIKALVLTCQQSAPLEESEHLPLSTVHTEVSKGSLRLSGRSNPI

[2] = molecular target: T1, Neuropeptide Y receptor type 4; experiment: Agonist potency at human Y4 receptor expressed in HEK293T-NlucN-mGSi/Y4R-NlucC cells assessed as intrinsic activity by miniGsi protein recruitment assay relative to hPP; format: cell-based; conditions: filed as agonist
[3] = molecular target: T2, Neuropeptide Y receptor type 2 (Homo sapiens, UniProt P49146); experiment: Displacement of [3H]propionyl-pNPY from human Y2 receptor expressed in CHO cells measured after 90 mins by MicroBeta plate counter based competition binding assay; format: cell-based; conditions: for pKi: read-out: Ki; for Ki: read-out: pKi (converted)
T2 sequence (P49146 whole entry): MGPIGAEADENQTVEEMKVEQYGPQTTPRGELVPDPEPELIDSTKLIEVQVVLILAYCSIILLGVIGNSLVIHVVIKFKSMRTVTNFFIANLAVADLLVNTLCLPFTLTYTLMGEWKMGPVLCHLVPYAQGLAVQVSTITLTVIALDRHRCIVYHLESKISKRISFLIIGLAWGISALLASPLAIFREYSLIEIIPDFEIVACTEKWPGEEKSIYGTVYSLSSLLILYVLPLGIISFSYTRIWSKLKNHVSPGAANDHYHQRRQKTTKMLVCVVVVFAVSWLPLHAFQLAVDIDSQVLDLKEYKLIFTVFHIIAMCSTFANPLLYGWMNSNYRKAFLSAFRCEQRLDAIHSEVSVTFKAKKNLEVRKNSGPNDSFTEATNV

[4] = molecular target: T1, Neuropeptide Y receptor type 4; experiment: Displacement of [3H]UR-KK200 from human Y4 receptor expressed in CHO-Gqi5-mtAQE cells measured after 90 mins by MicroBeta plate counter based competition binding assay; format: cell-based; conditions: for pKi: read-out: Ki; for Ki: read-out: pKi (converted)
[5] = molecular target: T3, Neuropeptide Y receptor type 5 (Homo sapiens, UniProt Q15761); experiment: Displacement of [3H]propionyl-pNPY from human Y5 receptor expressed in HEC-1B cells measured after 90 mins by MicroBeta plate counter based competition binding assay; format: cell-based, HEC-1B cell line; conditions: for pKi: read-out: Ki; for Ki: read-out: pKi (converted)
T3 sequence (Q15761 whole entry): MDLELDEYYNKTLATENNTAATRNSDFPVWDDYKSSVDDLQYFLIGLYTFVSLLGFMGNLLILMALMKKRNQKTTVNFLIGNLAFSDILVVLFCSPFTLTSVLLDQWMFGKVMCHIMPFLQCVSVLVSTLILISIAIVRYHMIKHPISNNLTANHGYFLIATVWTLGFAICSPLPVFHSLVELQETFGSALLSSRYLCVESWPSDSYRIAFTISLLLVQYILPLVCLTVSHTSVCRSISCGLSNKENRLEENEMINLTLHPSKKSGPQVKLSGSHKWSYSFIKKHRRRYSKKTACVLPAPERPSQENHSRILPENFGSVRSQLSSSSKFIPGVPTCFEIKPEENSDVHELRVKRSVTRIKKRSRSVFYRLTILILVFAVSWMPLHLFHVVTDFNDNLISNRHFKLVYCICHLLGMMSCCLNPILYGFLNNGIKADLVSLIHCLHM

[6] = Stability in human plasma assessed as intact remained level in presence of ramipril ACE inhibitor measured over 4 hrs at 37 degC; format: ADME, cell-free
[7] = Stability in human plasma assessed as half life time by measuring loss of intact peptide at 100 uM measured upto 24 hrs at 37 degC; format: ADME, cell-free
[8] = Stability in human plasma assessed as time constant by measuring loss of intact peptide at 100 uM measured upto 24 hrs at 37 degC; format: ADME, cell-free
[9] = Stability in human plasma assessed as rate constant by measuring loss of intact peptide at 100 uM measured upto 24 hrs at 37 degC; format: ADME, cell-free

| SMILES | pEC50 ([1]; hek293t) | Intrinsic activity [2] | pKi [3] | Ki [3] [µM] | pKi [4] | Ki [4] [nM] | pKi ([5]; hec-1b cell line) | Ki [5] [µM] | pEC50 [1] | EC50 [1] [nM] | pKi [5] | Stability [6] | half-life at 100 µM [7] [min] | K [8] [h⁻¹] | half-life at 100 µM [9] [min] | pKi ([3]; cho) |
| --- | --- | --- | --- | --- | --- | --- | --- | --- | --- | --- | --- | --- | --- | --- | --- | --- |
| CC(C)C[C@H](NC(=O)[C@@H]1CCCNC(=N)NC(=O)NCCCCNC(=O)CCC(=O)N[C@@H](CCCNC(=N)N)C(=O)N[C@@H](Cc2ccc(O)cc2)C(=O)N1)C(=O)N[C@@H](CCCNC(=N)N)C(=O)N[C@@H](Cc1ccc(O)cc1)C(N)=O | 8.77 | 68% |  |  |  |  |  |  |  |  |  |  |  |  |  |  |
| CC(=O)N[C@@H](CCCNC(=N)N)C(=O)NC[C@@H]1[C@H](C(=O)N[C@@H](CCCNC(=N)N)C(=O)NC[C@@H]2[C@H](C(=O)N[C@@H](CCCNC(=N)N)C(=O)N[C@@H](Cc3ccc(O)cc3)C(N)=O)C[C@H]2c2ccccc2)C[C@H]1c1ccccc1 (Ac-R[X1]R[X1]RY-NH2) |  |  | < 5.52 | > 3.16 | 6.47 | 331 | < 6.00 | > 1 |  |  |  |  |  |  |  |  |
| CC(C)C[C@H](NC(=O)[C@@H]1CCCNC(=N)NC(=O)NCCCCNC(=O)CCC(=O)N[C@@H](CCCNC(=N)N)C(=O)N[C@@H](Cc2c[nH]c3ccccc23)C(=O)N1)C(=O)N[C@@H](CCCNC(=N)N)C(=O)N[C@@H](Cc1ccc(O)cc1)C(N)=O |  | 80% |  |  |  |  |  |  |  |  |  |  |  |  |  |  |
| CC(=O)N[C@@H](CCCNC(=N)N)C(=O)NC[C@H]1[C@@H](C(=O)N[C@@H](CCCNC(=N)N)C(=O)NC[C@H]2[C@@H](C(=O)N[C@@H](CCCNC(=N)N)C(=O)N[C@@H](Cc3ccc(O)cc3)C(N)=O)C[C@@H]2c2ccccc2)C[C@@H]1c1ccccc1 (Ac-R[X2]R[X2]RY-NH2) |  |  | < 5.52 | > 3.16 | 6.04 | 891 | < 6.00 | > 1 |  |  |  |  |  |  |  |  |
| CC(=O)N[C@@H](CCCNC(=N)N)C(=O)NC[C@H]1[C@@H](C(=O)N[C@@H](CCCNC(=N)N)C(=O)N[C@@H](CC(C)C)C(=O)N[C@@H](CCCNC(=N)N)C(=O)N[C@@H](Cc2ccc(O)cc2)C(N)=O)C[C@@H]1c1ccccc1 (Ac-R[X2]RLRY-NH2) |  | 0.39 | < 5.52 | > 3.16 | 7.92 |  |  | > 3.16 | 6.21 | 468 | < 5.52 | Stable | 192 | 0.31 | 132 |  |
| CC(=O)N[C@@H](CCCNC(=N)N)C(=O)N[C@@H](Cc1ccc(O)cc1)C(=O)N[C@@H](CCCNC(=N)N)C(=O)N[C@@H](CC(C)C)C(=O)N[C@@H](CCCNC(=N)N)C(=O)N[C@@H](Cc1ccc(O)cc1)C(N)=O |  | 0.58 | < 5.30 | > 5.01 |  |  |  | > 5.01 | 6.96 |  | < 5.30 |  | 120 | 0.5 | 84 |  |
| CC(C)C[C@H](NC(=O)[C@@H](N)CCCNC(=N)N)C(=O)N[C@@H](CCCNC(=N)N)C(=O)N[C@@H](Cc1ccc(O)cc1)C(N)=O |  | 54% |  |  |  |  |  |  |  |  |  |  |  |  |  |  |
| CC(=O)N[C@@H](CCCNC(=N)N)C(=O)NC[C@@H]1[C@H](C(=O)N[C@@H](CCCNC(=N)N)C(=O)N[C@@H](CC(C)C)C(=O)N[C@@H](CCCNC(=N)N)C(=O)N[C@@H](Cc2ccc(O)cc2)C(N)=O)C[C@H]1c1ccccc1 (Ac-R[X1]RLRY-NH2) |  | 0.5 |  | > 1 | 9.18 | 0.646 |  | > 3.16 | 7.70 | 18.6 | < 5.52 | Stable | 33 | 1.83 | 24 | < 6.00 |
